Measurements taken from patent US5637570A, “Disubstituted and trisubstituted derivatives of 2,3:4,6-di-O-isopropylidene-α-L-xylo-2-hexulofuranosonic acid having anti-cancer, anti-inflammatory and anti-proliferative activity” (Chemora Pharmochem, priority 1995, dated 1997).
Where two headings read alike, the source gives them in different places.

What was measured:
[1] = test system: mouse spleen cell (T-lymphocyte); experiment: Concanavalin A (CON-A) assay, mouse spleen cell mitogen induced blastogenesis; type: cell-based; conditions: Anti-inflammatory/Anti-proliferative Activity
Source text: iii Concanavalin A assay (the mouse spleen cell mitogen induced blastogenesis).
(§1) The MLR assay measures the effects of a study compound on the activation and antigen presentation of T-lymphocytes, therefore determining immunomodulatory properties. The mouse spleen cell mitogen-induced blastogenesis and the BUD-8 human fibroblast proliferation assays measure the effects of the compounds of the present invention on cellular proliferation of cells involved in the pathogenesis of autoimmune diseases. These two assays are appropriate as screens to ascertain anti-inflammatory and/or autoimmune diseases.
It is known that the induction and maintenance of most inflammatory diseases are typically due to the unrestricted activity of T-lymphocytes. Therefore, it is advantageous to identify compounds which are modulators of T-lymphocyte activity for eventual use in the regulation of inflammatory diseases, including acquired immune deficiency syndrome, psoriasis, systemic lupus, erythromatosus, and rheumatoid arthritis.
(§2) The detailed experimental procedure for the above-mentioned assays is described in detail in U.S. Pat. Nos. 5,360,790 and 5,367,062 incorporated herein by reference.

[2] = test system: human tumor cell lines (approximately 60); experiment: NCI in vitro human tumor cell line screen (SRB), mean graph midpoints over all cell lines; type: cell-based; conditions: for CC50 / GI50 / IC (TGI): Homo sapiens, average of all cell lines, 48 h; for CC50: 50% cell death (-50% growth), read-out: log10 LC50 mean graph midpoint (converted); for IC (TGI): total cell growth inhibition (0% growth), read-out: log10 TGI mean graph midpoint (converted); for in vitro activity in words: various in vitro cell lines, IC50, average GI50, mean graph pattern
Description: In performing in vitro human tumor cell line assay, a total of approximately 60 human tumor cell lines derived from ten cancer types (leukemia, non-small cell lung cancer, small cell lung cancer, colon cancer, CNS cancer, melanoma, ovarian cancer, renal cancer, breast cancer and prostate cancer) were used in this assay. Compounds were tested at different concentrations against every cell line. All lines are inoculated into a series of standard 96-well microtiter plates on day 0, in the majority of cases at 20,000 cells/well, and then pre-incubated in the absence of testing agent for 24 hours. A testing agent was then added in five 10-fold dilutions and incubated for a further period of 48 hours. Following this, the cells are fixed in situ, washed, and dried. Sulforhodamine B (SRB, protein binding dye) is added, followed by further washing and drying of the stained adherent cell mass. The bound stain is solubilized and measured spectrophotometrically on an automatic plate reader.
For each compound, dose response curves for each cell line were measured with five different drug concentrations, and the concentration causing 50% cell growth inhibition (GI50), total cell growth inhibition (TGI, 0% growth), and 50% cell death (LC50, -50% growth) compared with the control was calculated. […] In these graphs, the mean logarithmic value of GI50 in all cell lines for each tested compound is used as the midpoint of that bar graph.

[3] = test system: COLO 205 Colon Tumor Xenografts; experiment: Early Stage SC COLO 205 Colon Tumor Xenografts; conditions: for Drug Deaths: of 6 mice; for Opt. % T/C: >40 considered inactive
Description: (§3) In this in vivo model Murine or human tumor fragments (30 mg) are implanted subcutaneously into the axillary region of pathogen-free immunocompetent or immunodefficient mice, respectively, on experimental day 0. Test agent treatment is initiated either on the day which is historically associated with the start of tumor growth, or when the tumor is palpable. Tumor size and body weights are obtained approximately two times per week. Tumor weights are calculated from caliper measurements of tumor dimensions in mm using the formula for a prolate ellipsoid:
(§4) (L×W^2)/2; where L is the longer of the 2 measurements
(§5) Generally, tumor size is monitored until an upper weight limit of 500 mg is attained.

[4] = test system: T cells (splenic T cell proliferation, co-cultured spleen cells from two strains of mice); experiment: Mixed lymphocyte response (MLR); type: cell-based; conditions: Mus musculus, Anti-inflammatory/Anti-proliferative Activity
Source text: i Mixed lymphocyte response (MLR).
as §1
The MLR is a classical assay used to measure T cell function by studying the proliferation response of T cells which are activated in vitro by genetically disparate stimulator cells. This is accomplished by co-culturing spleen cells from two different strains of mice. Splenic T cell proliferation occurs as a result of cellular activation signals generated by the ongoing cellular interactions.
as §2

[5] = test system: SK-MEL-28 Melanoma Xenografts; experiment: Early Stage SK-MEL-28 Melanoma Xenografts; conditions: for Drug Deaths: of 6 mice; for Opt. % T/C: >40 considered inactive
Description: as §3, §4, §5

[6] = test system: UACC-62 Melanoma Xenografts; experiment: Early Stage Subcutaneous Tumor Model UACC-62 Melanoma Xenografts; conditions: for Drug Deaths: of 6 mice; for Opt. % T/C: >40 considered inactive
Description: as §3, §4, §5

BUD-8 human fibroblast = experiment: BUD-8 human cell line fibroblast proliferation assay (FIB.); type: cell-based; conditions: Anti-inflammatory/Anti-proliferative Activity
Source text: ii BUD-8 human cell line fibroblast proliferation assay.
as §1
The skin cell fibroblast line, BUD-8, was originally derived from the normal skin of a person and can now be obtained from the American Type Culture Collection, Rockville, Md.
as §2

P388 Murine Leukemia = P388 Murine Leukemia in vivo; conditions: for antitumor activity / toxicity: Ic 60, 40 and 27 mg/kg/dose, Im 120, 80 and 54 mg/kg/dose; for maximally tolerated dose: mouse, in vivo
Description: Two of the compounds of the present invention (Ic and Im) were also tested against P388 Murine Leukemia.

[7] = 50% cell growth inhibition, read-out: GI50 (average)
[8] = log10 of molar concentration, read-out: log10 I50 (log10 GI50 mean graph midpoint) (converted)
[9] = 90 mg/kg/dose IP Q4D × 3, day 7
[10] = 200 mg/kg/dose IP Q4D × 3, day 7
[11] = 200 mg/kg/dose IP QD × 5, day 3
[12] = 90 mg/kg/dose IP Q4D × 3, day 6
[13] = 90 mg/kg/dose IP Q4D × 3, day 6, optimum on day 16
[14] = 134 mg/kg/dose IP Q4D × 3, day 6
[15] = 200 mg/kg/dose IP Q4D × 3, day 6
[16] = 130 mg/kg/dose IP Q4D × 3, day 7
[17] = 130 mg/kg/dose IP QD × 5, day 3

SMILES	IC50 [1] [µM]	CC50 [2] [µM]	GI50 [2, 7] [µM]	GI50 [2, 8] [µM]	IC (TGI) [2] [µM]	in vitro activity in words [2]	Drug Deaths [3, 9]	IC50 [4] [µM]	Drug Deaths ([5]; 90 mg/kg/dose IP QD × 5, day 3)	Drug Deaths [6, 12]	Opt. % T/C [6, 13] [%]	IC50 (BUD-8 human fibroblast) [µM]	antitumor activity (P388 Murine Leukemia)	toxicity (P388 Murine Leukemia)	maximally tolerated dose (P388 Murine Leukemia)	further results
CCCCCCCCCCCCOC[C@@]12O[C@@H](CN3CCOCC3)[C@@H](O)[C@@H]1OC(C)(C)O2 [Ic, 2,3-O-Isopropylidene-6-deoxy-6-(1-morpholinyl)-1-O-dodecyl-α-L-xylo-2-hexulofuranose]	10.3	56.2	31.6	14.5	29.5	significant activity in various in vitro cell lines	0	< 1	0	0	39	14.8	only slight antitumor activity	toxic at the higher dose levels	a maximally tolerated dose was not achieved	Drug Deaths ([3]; 134 mg/kg/dose IP Q4D × 3, day 7): 1; Opt. % T/C ([3]; 134 mg/kg/dose IP Q4D × 3, day 7, optimum on day 29): 40%; Opt. % T/C [3, 10]: Toxic; Drug Deaths [3, 10]: 6; Opt. % T/C ([3]; Ic 90 mg/kg/dose IP Q4D × 3, day 7, optimum on day 36): 43%; Drug Deaths ([5]; 134 mg/kg/dose IP QD × 5, day 3): 1; Opt. % T/C ([5]; 134 mg/kg/dose IP QD × 5, day 3, optimum on day 9): 36%; Opt. % T/C [5, 11]: Toxic; Drug Deaths [5, 11]: 6; Opt. % T/C ([5]; Ic 90 mg/kg/dose IP QD × 5, day 3, optimum on day 16): 35%; Opt. % T/C [6, 14]: Toxic; Drug Deaths [6, 14]: 6; Opt. % T/C [6, 15]: Toxic; Drug Deaths [6, 15]: 6
CCCCCCCCCCCCOC[C@@]12O[C@@H](C)[C@@H](OCCN3CCCCC3)[C@@H]1OC(C)(C)O2 [Im, 2,3-O-Isopropylidene-6-deoxy-1-O-dodecyl-4-O-ethylpiperidinyl-α-L-xylo-2-hexulofuranose]	7.4	50.1	20.2	9.77	22.9	significant activity in various in vitro cell lines	0	< 1	2	0	44	3.6	only slight antitumor activity	toxic at the higher dose levels	a maximally tolerated dose was not achieved	Drug Deaths ([3]; 54 mg/kg/dose IP Q4D × 3, day 7): 0; Opt. % T/C ([3]; 54 mg/kg/dose IP Q4D × 3, day 7, optimum on day 36): 44%; Opt. % T/C [3, 16]: Toxic; Drug Deaths [3, 16]: 4; Opt. % T/C ([3]; Im 90 mg/kg/dose IP Q4D × 3, day 7, optimum on day 29): 45%; Drug Deaths ([5]; 54 mg/kg/dose IP QD × 5, day 3): 1; Opt. % T/C ([5]; 54 mg/kg/dose IP QD × 5, day 3, optimum on day 16): 47%; Opt. % T/C [5, 17]: Toxic; Drug Deaths [5, 17]: 5; Opt. % T/C ([5]; Im 90 mg/kg/dose IP QD × 5, day 3, optimum on day 9): 49%; Drug Deaths ([6]; 54 mg/kg/dose IP Q4D × 3, day 6): 0; Opt. % T/C ([6]; 54 mg/kg/dose IP Q4D × 3, day 6, optimum on day 9): 51%; Drug Deaths ([6]; 130 mg/kg/dose IP Q4D × 3, day 6): 1; Opt. % T/C ([6]; 130 mg/kg/dose IP Q4D × 3, day 6, optimum on day 16): 42%
